Patent publication US10947242B2, “[1,2,4]triazolo[1,5and#8208;A]pyrimidine compounds as PDE2 inhibitors” (Janssen Pharmaceutica NV, priority 2016, dated 2021)
Like-named read-outs stand apart in the source and are kept apart here.

Assays:
PDE2A = target: T1, PDE2A (Rattus norvegicus, UniProt Q01062); test: PDE2 occupancy by test compounds, ex-vivo autoradiography with [3H]B-17a; format: in vivo, Male Wistar rats; conditions: for receptor occupancy at 10 mg/kg: percentage receptor occupancy, ex-vivo autoradiography, striatum; for ED50: read-out: PDE Occupancy ED50
T1 construct: Twenty μm-thick striatal sections were cut; from tissue; host or cells: rat brain, striatal sections
T1 sequence (Q01062 1-928): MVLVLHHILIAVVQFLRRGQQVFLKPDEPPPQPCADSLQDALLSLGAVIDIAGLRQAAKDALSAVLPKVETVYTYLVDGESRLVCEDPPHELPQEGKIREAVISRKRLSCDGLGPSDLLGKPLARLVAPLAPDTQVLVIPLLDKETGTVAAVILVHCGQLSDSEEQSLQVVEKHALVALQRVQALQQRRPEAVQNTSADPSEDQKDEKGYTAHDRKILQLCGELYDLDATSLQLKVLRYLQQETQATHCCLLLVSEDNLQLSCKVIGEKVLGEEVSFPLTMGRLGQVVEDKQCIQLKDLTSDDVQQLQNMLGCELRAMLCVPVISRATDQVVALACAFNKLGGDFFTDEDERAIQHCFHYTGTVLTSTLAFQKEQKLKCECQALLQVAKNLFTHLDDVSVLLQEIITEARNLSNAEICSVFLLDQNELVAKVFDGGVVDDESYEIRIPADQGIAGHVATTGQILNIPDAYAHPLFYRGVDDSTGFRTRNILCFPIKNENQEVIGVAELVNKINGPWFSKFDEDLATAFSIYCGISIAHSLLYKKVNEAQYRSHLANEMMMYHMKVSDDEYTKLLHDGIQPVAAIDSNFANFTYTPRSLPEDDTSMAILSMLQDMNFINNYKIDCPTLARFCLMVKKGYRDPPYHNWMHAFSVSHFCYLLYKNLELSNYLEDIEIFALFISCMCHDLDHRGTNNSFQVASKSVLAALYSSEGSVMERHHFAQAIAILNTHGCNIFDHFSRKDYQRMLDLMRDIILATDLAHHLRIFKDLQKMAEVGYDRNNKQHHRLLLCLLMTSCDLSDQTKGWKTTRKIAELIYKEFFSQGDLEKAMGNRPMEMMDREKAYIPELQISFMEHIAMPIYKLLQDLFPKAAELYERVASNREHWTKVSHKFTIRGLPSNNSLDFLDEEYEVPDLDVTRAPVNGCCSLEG

[1] = target: T2, Human recombinant PDE3A (hPDE3A) (Homo sapiens, UniProt Q14432); test: In vitro assay PDE3A (SPA, 3H-cAMP hydrolysis); format: biochemical; conditions: for IC50: hPDE3B pIC50, read-out: pIC50 (converted); for Emax: read-out: hPDE3B Emax, read-out: Emax;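 on all read-outs here: the method names PDE3A and the table heading PDE3B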
T2 construct: purchased Scottish Biomedical; host or cells: Sf9 insect cells
T2 sequence (Q14432 whole entry): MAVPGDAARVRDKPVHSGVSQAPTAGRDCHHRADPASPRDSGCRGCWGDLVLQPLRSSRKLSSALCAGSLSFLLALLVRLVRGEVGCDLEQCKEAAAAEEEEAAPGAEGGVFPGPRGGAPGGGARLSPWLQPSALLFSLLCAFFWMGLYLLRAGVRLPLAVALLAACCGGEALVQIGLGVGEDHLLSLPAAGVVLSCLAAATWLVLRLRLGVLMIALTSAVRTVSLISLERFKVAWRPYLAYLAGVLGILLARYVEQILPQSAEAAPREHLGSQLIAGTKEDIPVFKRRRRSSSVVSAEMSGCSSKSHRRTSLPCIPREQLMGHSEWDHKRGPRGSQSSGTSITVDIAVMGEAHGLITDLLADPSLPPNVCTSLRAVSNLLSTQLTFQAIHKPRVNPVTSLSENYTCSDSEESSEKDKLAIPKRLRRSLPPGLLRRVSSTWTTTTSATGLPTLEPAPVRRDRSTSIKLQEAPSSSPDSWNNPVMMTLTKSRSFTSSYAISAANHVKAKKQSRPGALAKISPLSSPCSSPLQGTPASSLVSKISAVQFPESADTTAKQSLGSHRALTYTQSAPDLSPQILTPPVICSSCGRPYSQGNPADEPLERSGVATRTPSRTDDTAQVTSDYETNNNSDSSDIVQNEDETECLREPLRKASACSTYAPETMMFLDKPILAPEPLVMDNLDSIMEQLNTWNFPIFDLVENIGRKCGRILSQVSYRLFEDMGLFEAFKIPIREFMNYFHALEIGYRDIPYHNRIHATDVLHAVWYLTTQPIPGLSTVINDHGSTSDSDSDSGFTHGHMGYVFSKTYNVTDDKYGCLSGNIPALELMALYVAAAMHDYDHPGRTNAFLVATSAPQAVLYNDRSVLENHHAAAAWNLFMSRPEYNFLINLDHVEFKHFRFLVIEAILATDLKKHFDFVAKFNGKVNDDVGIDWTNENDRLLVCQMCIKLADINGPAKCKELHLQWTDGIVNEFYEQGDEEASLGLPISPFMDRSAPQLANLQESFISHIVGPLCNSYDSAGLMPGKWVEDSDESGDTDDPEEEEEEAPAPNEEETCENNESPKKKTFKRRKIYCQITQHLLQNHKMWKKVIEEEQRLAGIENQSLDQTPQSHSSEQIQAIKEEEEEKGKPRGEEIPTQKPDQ
In short: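 Human PDE3A, cloned from brain, as partially purified Sf9 lysate. Substrate 0.4 μM cAMP plus [3H]-cAMP (2.4 μCi/ml final) in 50 mM Tris pH 7.8, 8.3 mM MgCl2, 1.7 mM EGTA, 60 min at room temperature, 1% DMSO final. Hydrolysis read by SPA scintillation counting against no-enzyme blanks and DMSO controls.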

[2] = target: T3, Human recombinant PDE10A (hPDE10A) (Homo sapiens, UniProt Q9Y233); test: In vitro assay PDE10A, human clone (SPA, 3H-cAMP hydrolysis); format: biochemical
T3 construct: His tag (inferred from metal chelate purification); made in house; host or cells: Sf9 insect cells (baculovirus)
T3 sequence (Q9Y233 267-1055): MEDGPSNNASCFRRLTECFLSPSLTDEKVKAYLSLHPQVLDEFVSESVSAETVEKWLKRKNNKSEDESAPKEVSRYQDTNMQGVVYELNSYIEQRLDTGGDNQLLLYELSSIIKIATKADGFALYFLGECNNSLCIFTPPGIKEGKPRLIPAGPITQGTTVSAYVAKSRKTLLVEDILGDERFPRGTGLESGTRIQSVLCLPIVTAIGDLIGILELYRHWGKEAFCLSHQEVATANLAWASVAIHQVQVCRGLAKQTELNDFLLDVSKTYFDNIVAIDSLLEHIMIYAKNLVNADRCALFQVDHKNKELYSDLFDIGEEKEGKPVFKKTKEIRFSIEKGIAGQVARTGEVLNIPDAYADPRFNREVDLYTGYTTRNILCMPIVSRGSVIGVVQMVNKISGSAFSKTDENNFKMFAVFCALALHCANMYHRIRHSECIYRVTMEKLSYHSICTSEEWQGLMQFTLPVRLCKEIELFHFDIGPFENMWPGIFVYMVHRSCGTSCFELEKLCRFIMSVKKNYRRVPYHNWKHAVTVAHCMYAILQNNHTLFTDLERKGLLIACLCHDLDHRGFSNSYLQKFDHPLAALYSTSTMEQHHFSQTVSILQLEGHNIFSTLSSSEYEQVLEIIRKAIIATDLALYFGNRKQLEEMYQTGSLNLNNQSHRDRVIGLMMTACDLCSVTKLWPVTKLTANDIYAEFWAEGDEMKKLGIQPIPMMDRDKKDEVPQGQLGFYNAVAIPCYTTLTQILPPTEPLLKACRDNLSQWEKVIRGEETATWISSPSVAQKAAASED
In short: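 Human recombinant PDE10A was expressed in Sf9 cells via baculovirus and incubated with compound in 50 mM Tris pH 7.8, 8.3 mM MgCl2, 1.7 mM EGTA. Substrate was 60 nM cAMP plus 0.008 μCi 3H-cAMP for 60 min at room temperature, read by SPA scintillation counting. Controls used 1% DMSO, and blanks omitted enzyme.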

[3] = target: T4, Human recombinant PDE2A (hPDE2A) (Homo sapiens, UniProt O00408); test: In vitro assay PDE2A (SPA, 3H-cGMP hydrolysis); format: biochemical; conditions: for Emax: read-out: hPDE2A Emax
T4 construct: His tag (inferred from metal chelate purification); made in house; host or cells: Sf9 insect cells (baculovirus)
T4 sequence (O00408 whole entry): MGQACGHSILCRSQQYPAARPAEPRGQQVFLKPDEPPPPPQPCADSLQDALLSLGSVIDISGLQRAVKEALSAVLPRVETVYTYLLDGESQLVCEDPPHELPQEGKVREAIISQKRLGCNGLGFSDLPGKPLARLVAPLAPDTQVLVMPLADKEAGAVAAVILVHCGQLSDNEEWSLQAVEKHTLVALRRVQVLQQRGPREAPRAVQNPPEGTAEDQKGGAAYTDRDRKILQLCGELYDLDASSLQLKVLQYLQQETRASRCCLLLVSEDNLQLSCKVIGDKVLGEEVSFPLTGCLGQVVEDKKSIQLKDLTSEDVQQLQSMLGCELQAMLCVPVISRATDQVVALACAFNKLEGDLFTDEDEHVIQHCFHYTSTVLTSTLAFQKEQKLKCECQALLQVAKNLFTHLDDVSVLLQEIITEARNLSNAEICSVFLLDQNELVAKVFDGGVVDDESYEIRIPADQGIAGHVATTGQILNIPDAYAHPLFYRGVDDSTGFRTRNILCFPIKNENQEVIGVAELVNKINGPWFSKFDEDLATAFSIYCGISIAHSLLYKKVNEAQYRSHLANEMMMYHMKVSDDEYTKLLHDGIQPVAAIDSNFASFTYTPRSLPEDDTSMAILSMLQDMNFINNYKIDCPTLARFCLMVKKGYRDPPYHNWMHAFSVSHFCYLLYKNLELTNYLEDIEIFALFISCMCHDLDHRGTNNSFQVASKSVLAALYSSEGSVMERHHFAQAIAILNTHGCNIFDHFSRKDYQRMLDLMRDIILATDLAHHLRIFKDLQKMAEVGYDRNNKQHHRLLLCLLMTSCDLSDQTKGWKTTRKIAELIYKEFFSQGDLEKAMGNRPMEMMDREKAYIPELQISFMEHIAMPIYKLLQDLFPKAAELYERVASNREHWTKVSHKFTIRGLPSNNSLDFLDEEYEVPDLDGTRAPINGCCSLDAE

[4] = human clone (h), default, read-out: hPDE10A2 Emax
[5] = human clone (h), default, read-out: hPDE10A2 pIC50 (converted)
[6] = hPDE2A pIC50, human recombinant PDE2A, 10 μM cGMP substrate
[7] = human recombinant PDE2A, 10 μM cGMP substrate, read-out: hPDE2A pIC50 (converted)
[8] = read-out: hPDE2A pIC50 (converted)
[9] = route PO (oral), drug dose producing 50% receptor occupancy
[10] = human clone by default (no (r) mark), read-out: hPDE10A2 or rPDE10A2 Emax
[11] = human clone by default (no (r) mark), read-out: hPDE10A2 or rPDE10A2 pIC50 (converted)

Row | SMILES | receptor occupancy at 10 mg/kg (PDE2A; po, route PO (oral)) | melting point | IC50 [1] | Emax [1] | Emax [2, 4] | IC50 [2, 5] | IC50 ([3]; hPDE2A pIC50) | IC50 [3, 6] | Emax [3] | IC50 [3, 7] | Emax ([3]; human recombinant PDE2A) | IC50 [3, 8] | ED50 (PDE2A; [9]) | receptor occupancy at 10 mg/kg (PDE2A; sc, route SC (subcutaneous)) | Emax [2, 10] | IC50 [2, 11] | receptor occupancy at 10 mg/kg (PDE2A; route PO (oral)) | ED50 (PDE2A; po)
1 | Cc1cc(C(=O)N2CC[C@@H](C)[C@H](c3cc(C(F)F)nc4ncnn34)C2)cc(Cl)c1F [Compound 129] | 21% | 140.78 °C | 1950 nM | 85% | 99% | 91.2 nM | 2.29 nM | 2.29 nM | 101% |  |  |  |  |  |  |  |  | 
2 | COc1cc(C(=O)N2CC[C@@H](C)[C@H](c3cc(C(F)F)nc4ncnn34)C2)ccc1Cl [Compound 130] | 0% | 193.85 °C | 1740 nM | 87% | 96% | 135 nM |  |  | 100% | 2.45 nM | 100% | 2.45 nM |  |  |  |  |  | 
3 | Cc1cc(C#N)cc(C(=O)N2CC[C@@H](C)[C@H](c3cc(C(F)F)nc4ncnn34)C2)c1 [Compound 131] | 0% | 224.39 °C | 7760 nM | 61% | 99% | 40.7 nM | 2.45 nM | 2.45 nM | 98% |  |  |  |  |  |  |  |  | 
4 | Cc1cc(C(=O)N2CC[C@@H](C)[C@H](c3cc(C(F)F)nc4ncnn34)C2)cc(C(F)(F)F)n1 [Compound 132] |  | 116.57 °C | > 10000 nM | 46% | 98% | 200 nM |  |  | 101% | 2.51 nM | 101% | 2.51 nM | 5 mg/kg | 76% |  |  |  | 
5 | COc1ccc(C(=O)N2CC[C@@H](C)[C@H](c3cc(C(F)F)nc4ncnn34)C2)cc1OC(F)F [Compound 133] | -19% | 152.33 °C | 1620 nM | 85% | 98% | 135 nM |  |  | 100% | 2.95 nM | 100% | 2.95 nM |  |  |  |  |  | 
6 | Cc1cc(C(=O)N2CC[C@@H](C)[C@H](c3cc(C(F)F)nc4ncnn34)C2)cc(F)c1F [Compound 189] | 9% | 152.03 °C | 2750 nM | 80% | 96% | 186 nM | 5.13 nM | 5.13 nM | 100% |  |  |  |  |  |  |  |  | 
7 | C[C@@H]1CCN(C(=O)c2ccc(F)c(C(F)F)c2)C[C@H]1c1cc(C(F)F)nc2ncnn12 [Compound 191] | -18% | 162.07 °C | 3890 nM | 74% | 97% | 224 nM |  |  | 100% | 12.9 nM | 100% | 12.9 nM |  |  |  |  |  | 
8 | C[C@@H]1CCN(C(=O)c2ccc(OC(F)F)c(F)c2)C[C@H]1c1cc(C(F)F)nc2ncnn12 [Compound 192] | -13% | 110.16 °C | 724 nM | 95% | 99% | 72.4 nM |  |  | 99% | 9.33 nM | 99% | 9.33 nM |  |  |  |  |  | 
9 | Cc1cc([C@@H]2CN(C(=O)c3cc(C4CC4)ncc3F)CC[C@H]2C)n2ncnc2n1 [Compound 224] | -6% | 153.14 °C | 1050 nM | 87% |  |  |  |  | 100% |  |  | 3.02 nM |  |  | 99% | 70.8 nM |  | 
10 | COc1cc(C(=O)N2CC[C@@H](C)[C@H](c3cc(C)nc4ncnn34)C2)c(F)cn1 [Compound 225] | -6% | 178.64 °C | 1780 nM | 83% |  |  |  |  | 99% |  |  | 11.5 nM |  |  | 98% | 93.3 nM |  | 
11 | C[C@@H]1CCN(C(=O)c2ccc3ncsc3c2)C[C@H]1c1cc(C(F)F)nc2ncnn12 [Compound 228] |  | 178.21 °C | 1200 nM | 91% | 100% | 17 nM |  |  | 100% | 0.224 nM | 100% | 0.224 nM | 1.5 mg/kg | 92% | 100% | 17 nM |  | 
12 | Cc1cc([C@@H]2CN(C(=O)c3cc(Cl)ncc3C(F)(F)F)CC[C@H]2C)n2ncnc2n1 [Compound 270] | 6% | 213.25 °C | > 10000 nM | 29% | 96% | 269 nM |  |  | 100% |  |  | 2.34 nM |  |  | 96% | 269 nM |  | 
13 | Cc1cc(C(=O)N2CC[C@@H](C)[C@H](c3cc(C(F)F)nc4ncnn34)C2)cc(OC(F)F)n1 [Compound 281] | 57% | 114.59 °C | 2240 nM | 87% |  |  |  |  | 100% |  |  | 1.66 nM | 4.2 mg/kg |  | 99% | 110 nM |  | 
14 | COc1nc(C)cc(C(=O)N2CC[C@@H](C)[C@H](c3cc(C(F)F)nc4ncnn34)C2)c1F [Compound 282] | 47% | 193.33 °C | 1700 nM | 88% |  |  |  |  | 100% |  |  | 2.88 nM | 11.8 mg/kg |  | 98% | 275 nM |  | 
15 | Cn1ccc2cc(C(=O)N3[C@H]4CC[C@H](c5cc(C(F)F)nc6ncnn56)[C@@H]3CC4)ccc21 [Compound 295] |  | 178.8 °C | 977 nM | 94% |  |  |  |  | 101% |  |  | 0.49 nM |  |  | 98% | 245 nM | 71% | 5.63 mg/kg
16 | O=C(c1cnc2c(Cl)cccc2c1)N1[C@H]2CC[C@H](c3cc(C(F)F)nc4ncnn34)[C@@H]1CC2 [Compound 310] |  | 240.9 °C | 3890 nM | 78% |  |  |  |  | 100% |  |  | 1.41 nM |  |  | 95% | 398 nM | 52% | 9.6 mg/kg
17 | Cc1cc(C(=O)N2CC[C@@H](C)[C@H](c3cc(C(F)F)nc4ncnn34)C2)cc(C(F)F)n1 [Compound 321] | 73% | 137.5 °C | 8130 nM | 45% |  |  | 2.19 nM |  | 101% |  |  |  |  |  | 97% | 309 nM |  | 3.37 mg/kg
18 | C[C@@H]1CCN(C(=O)c2cn(C)c3ccccc23)C[C@H]1c1cc(C(F)F)nc2ncnn12 [Compound 328] | -18% | 247.48 °C | 1480 nM | 90% |  |  |  |  | 100% |  |  | 0.631 nM |  |  | 100% | 61.7 nM |  | 
